This is an account of results in PMC12136037, “Type II kinase inhibitors that target Parkinson’s disease–associated LRRK2” (Science Advances, 2025).

Holding throughout (test): DSF 100 kinase selectivity screen;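 also: compound tested at 20 µM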
Common to all, as to type: binding

Assay [1] concerns the target T1, ~100 representative kinases (Homo sapiens, UniProt O14936).
T1 construct: Recombinant protein kinase domains with a concentration of 2 μM
T1 sequence (O14936 1-926): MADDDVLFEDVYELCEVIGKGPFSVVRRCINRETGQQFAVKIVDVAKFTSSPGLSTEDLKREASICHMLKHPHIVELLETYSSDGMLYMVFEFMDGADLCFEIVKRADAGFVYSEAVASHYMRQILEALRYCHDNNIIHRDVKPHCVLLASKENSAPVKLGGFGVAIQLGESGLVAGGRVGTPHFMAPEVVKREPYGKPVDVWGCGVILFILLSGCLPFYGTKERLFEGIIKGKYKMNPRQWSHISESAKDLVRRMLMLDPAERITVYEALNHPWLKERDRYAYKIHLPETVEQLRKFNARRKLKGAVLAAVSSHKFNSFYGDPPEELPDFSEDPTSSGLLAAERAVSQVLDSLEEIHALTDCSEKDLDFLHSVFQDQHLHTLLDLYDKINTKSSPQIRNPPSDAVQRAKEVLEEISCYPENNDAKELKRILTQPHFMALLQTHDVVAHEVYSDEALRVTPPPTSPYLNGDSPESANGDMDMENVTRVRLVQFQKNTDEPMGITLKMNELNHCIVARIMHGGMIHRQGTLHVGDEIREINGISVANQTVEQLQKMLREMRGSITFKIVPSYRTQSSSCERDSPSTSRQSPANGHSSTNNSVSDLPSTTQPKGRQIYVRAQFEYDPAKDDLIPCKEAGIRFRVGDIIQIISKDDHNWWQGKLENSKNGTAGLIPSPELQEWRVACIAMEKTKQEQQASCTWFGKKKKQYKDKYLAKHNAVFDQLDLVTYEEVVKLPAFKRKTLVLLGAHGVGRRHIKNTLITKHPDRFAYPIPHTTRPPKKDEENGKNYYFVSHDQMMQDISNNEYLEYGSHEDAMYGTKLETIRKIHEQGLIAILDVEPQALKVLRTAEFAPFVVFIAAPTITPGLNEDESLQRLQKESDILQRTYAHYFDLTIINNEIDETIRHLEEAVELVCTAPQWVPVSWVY
Conditions: Protein CASK; average of three replicates. A digest of the protocol: (§1)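 Each kinase domain, at 2 μM, is mixed with 20 μM test compound and SYPRO Orange in Hepes (20 mM, pH 7.5) with 500 mM NaCl. Temperature is then raised at 3°C/min and fluorescence-monitored unfolding yields the melting temperature change, ΔTm in degrees Celsius.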

The target of assay [2] is T2, ~100 representative kinases (Homo sapiens, UniProt P21802).
T2 construct: Recombinant protein kinase domains with a concentration of 2 μM
T2 sequence (P21802 22-821): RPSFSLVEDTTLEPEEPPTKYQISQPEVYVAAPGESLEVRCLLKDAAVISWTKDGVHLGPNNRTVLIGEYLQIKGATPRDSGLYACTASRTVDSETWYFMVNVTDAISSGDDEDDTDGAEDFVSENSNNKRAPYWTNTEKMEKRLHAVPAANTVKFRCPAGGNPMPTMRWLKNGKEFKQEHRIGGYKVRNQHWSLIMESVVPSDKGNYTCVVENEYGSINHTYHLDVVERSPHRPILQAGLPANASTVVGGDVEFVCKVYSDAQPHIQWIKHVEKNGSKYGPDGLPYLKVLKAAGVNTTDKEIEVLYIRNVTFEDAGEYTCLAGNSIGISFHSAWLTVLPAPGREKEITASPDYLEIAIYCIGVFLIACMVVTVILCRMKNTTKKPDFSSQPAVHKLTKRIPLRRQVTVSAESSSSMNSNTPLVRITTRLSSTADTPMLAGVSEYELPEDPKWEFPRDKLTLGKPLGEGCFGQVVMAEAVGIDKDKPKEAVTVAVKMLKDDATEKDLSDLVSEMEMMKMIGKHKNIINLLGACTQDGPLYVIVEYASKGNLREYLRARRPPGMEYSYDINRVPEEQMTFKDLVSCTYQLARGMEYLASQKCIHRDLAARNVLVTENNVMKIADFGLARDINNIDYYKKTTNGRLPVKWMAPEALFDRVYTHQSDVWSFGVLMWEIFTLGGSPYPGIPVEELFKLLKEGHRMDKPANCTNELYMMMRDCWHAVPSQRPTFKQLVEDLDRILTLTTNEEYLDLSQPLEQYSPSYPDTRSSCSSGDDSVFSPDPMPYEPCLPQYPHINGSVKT
The note with it: protein FGFR2; average of three replicates. A digest of the protocol: as §1

In assay [3] the target is T3, ~100 representative kinases (Homo sapiens, UniProt P27448).
T3 construct: Recombinant protein kinase domains with a concentration of 2 μM
T3 sequence (P27448 whole entry, the tested form may be a part): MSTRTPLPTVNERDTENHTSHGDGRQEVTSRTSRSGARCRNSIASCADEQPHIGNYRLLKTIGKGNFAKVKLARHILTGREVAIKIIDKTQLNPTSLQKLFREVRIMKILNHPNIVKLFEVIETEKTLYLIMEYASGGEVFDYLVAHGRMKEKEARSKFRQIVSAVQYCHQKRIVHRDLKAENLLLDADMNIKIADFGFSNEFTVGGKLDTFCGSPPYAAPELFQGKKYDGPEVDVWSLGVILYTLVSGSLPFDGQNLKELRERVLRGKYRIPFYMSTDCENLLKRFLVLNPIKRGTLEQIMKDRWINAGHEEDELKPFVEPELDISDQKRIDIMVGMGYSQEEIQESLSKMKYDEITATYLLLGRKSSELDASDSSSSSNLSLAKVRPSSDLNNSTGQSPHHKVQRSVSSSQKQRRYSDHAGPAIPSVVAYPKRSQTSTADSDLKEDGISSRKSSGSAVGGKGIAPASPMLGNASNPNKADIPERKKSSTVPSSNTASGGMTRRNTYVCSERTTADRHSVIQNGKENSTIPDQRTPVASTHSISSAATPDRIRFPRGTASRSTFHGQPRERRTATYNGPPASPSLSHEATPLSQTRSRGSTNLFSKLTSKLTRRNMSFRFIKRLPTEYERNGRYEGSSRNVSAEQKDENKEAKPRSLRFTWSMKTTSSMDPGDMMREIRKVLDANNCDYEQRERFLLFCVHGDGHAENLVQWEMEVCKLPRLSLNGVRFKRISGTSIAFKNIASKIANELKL
Conditions: protein MARK3; average of three replicates. A digest of the protocol: as §1

Assay [4] has as its target T4, ~100 representative kinases (Homo sapiens, UniProt P68400).
T4 construct: Recombinant protein kinase domains with a concentration of 2 μM
Conditions: Protein CK2A1; average of three replicates. Put shortly: as §1

Assay [5] deals with T5, ~100 representative kinases (Homo sapiens, UniProt Q15375).
T5 construct: Recombinant protein kinase domains with a concentration of 2 μM
The note with it: Protein EPHA7; average of three replicates. A digest of the protocol: as §1

The target in assay [6] is T6, ~100 representative kinases (Homo sapiens, UniProt Q99683).
T6 construct: Recombinant protein kinase domains with a concentration of 2 μM
T6 sequence (Q99683 1-1374): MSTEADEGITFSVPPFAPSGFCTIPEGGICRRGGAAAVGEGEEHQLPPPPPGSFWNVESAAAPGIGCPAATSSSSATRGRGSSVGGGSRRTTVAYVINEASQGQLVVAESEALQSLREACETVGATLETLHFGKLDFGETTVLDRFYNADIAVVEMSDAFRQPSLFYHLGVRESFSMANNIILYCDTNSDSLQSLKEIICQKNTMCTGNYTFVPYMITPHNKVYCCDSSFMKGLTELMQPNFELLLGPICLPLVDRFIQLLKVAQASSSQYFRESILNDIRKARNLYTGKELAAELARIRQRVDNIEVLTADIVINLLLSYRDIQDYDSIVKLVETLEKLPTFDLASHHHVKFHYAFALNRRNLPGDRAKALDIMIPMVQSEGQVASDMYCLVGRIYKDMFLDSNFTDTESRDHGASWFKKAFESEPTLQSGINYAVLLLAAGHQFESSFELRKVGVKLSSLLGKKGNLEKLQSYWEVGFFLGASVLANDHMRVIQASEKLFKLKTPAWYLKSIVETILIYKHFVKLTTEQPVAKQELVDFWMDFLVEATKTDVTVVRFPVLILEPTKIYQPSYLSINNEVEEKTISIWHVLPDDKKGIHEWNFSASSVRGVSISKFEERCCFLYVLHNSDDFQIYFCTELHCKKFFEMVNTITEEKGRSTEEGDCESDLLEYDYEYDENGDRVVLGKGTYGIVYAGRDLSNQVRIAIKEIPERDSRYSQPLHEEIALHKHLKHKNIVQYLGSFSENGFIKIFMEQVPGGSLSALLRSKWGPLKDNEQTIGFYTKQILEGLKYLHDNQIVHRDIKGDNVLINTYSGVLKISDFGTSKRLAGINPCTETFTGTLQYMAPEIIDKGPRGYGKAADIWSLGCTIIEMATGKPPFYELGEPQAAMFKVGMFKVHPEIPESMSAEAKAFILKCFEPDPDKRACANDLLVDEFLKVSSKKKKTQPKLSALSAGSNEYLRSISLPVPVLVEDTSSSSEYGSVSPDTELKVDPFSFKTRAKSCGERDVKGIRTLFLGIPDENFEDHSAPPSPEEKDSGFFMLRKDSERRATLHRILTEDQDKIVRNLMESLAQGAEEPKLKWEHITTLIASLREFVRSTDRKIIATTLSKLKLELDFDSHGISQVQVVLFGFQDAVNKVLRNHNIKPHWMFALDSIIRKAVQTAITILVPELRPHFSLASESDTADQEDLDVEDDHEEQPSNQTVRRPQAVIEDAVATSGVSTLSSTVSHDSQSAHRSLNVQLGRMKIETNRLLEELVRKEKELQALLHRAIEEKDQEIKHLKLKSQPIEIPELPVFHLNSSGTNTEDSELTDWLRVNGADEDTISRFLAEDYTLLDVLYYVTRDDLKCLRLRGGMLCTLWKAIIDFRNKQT
The note with it: protein MAP3K5; average of three replicates. A digest of the protocol: as §1

The target of assay [7] is T7, ~100 representative kinases (Homo sapiens, UniProt Q9H2G2).
T7 construct: Recombinant protein kinase domains with a concentration of 2 μM
T7 sequence (Q9H2G2 whole entry, the tested form may be a part): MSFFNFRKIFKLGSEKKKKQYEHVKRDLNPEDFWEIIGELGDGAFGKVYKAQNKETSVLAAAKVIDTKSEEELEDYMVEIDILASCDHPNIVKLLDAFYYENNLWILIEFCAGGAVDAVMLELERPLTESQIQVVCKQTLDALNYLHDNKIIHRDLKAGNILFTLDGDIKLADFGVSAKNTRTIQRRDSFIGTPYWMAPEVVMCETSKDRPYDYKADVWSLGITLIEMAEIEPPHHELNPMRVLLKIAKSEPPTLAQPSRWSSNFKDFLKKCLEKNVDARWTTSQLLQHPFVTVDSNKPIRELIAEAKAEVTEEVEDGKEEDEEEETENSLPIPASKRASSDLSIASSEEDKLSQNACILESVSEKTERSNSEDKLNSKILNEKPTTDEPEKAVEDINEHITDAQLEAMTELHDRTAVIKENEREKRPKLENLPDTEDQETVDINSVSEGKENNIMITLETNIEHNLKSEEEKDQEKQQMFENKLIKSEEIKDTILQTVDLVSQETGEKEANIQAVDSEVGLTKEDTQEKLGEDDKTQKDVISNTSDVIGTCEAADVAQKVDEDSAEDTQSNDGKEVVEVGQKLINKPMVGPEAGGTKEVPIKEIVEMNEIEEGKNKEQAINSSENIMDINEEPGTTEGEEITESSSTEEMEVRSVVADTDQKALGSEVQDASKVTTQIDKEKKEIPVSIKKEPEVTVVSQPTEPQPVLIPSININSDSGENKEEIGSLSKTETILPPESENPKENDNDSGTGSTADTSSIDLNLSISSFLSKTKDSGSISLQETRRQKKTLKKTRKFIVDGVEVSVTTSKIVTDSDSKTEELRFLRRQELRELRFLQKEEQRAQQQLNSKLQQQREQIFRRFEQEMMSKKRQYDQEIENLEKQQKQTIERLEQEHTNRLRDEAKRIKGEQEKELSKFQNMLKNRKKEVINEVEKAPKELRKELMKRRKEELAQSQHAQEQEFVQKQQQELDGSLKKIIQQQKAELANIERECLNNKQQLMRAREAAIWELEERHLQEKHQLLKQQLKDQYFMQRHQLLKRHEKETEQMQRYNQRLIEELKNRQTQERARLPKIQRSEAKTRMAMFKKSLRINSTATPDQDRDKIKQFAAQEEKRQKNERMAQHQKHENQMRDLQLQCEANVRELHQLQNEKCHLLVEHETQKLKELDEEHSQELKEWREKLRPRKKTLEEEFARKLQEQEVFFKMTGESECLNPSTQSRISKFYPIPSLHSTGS
The note with it: Protein SLK; DSF; average of three replicates. Put shortly: as §1

The target in assay [8] is T8, ~100 representative kinases (Homo sapiens, UniProt Q9H2X6).
T8 construct: Recombinant protein kinase domains with a concentration of 2 μM
T8 sequence (Q9H2X6 whole entry, the tested form may be a part): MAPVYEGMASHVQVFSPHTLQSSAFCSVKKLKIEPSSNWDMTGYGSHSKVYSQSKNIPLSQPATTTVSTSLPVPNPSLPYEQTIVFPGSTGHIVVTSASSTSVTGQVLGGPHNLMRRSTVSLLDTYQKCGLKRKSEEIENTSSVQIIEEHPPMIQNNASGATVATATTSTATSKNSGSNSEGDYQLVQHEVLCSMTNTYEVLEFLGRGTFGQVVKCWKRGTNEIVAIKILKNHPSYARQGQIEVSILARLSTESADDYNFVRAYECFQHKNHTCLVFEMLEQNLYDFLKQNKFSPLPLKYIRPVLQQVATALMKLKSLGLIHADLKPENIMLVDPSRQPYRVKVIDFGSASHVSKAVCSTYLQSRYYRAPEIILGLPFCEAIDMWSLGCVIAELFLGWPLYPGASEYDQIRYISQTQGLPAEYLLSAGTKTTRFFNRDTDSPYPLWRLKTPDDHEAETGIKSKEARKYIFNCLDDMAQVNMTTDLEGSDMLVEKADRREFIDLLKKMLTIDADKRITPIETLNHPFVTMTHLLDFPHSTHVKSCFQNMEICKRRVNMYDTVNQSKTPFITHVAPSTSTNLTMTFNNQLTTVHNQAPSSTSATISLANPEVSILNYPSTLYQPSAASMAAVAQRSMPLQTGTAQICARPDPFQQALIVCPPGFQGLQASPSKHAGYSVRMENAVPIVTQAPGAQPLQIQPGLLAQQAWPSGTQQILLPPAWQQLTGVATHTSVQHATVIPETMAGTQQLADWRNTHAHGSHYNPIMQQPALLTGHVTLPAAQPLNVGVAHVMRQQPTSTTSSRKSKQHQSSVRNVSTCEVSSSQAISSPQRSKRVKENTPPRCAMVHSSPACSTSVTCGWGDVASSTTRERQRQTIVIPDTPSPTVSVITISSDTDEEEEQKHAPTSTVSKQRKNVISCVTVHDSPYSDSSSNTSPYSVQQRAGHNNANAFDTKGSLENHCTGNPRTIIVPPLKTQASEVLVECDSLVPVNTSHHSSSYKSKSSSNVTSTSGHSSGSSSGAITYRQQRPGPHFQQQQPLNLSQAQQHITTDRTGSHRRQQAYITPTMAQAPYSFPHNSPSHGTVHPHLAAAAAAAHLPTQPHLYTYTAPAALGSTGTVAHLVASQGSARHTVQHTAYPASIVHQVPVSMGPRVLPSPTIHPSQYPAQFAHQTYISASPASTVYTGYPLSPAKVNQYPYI
Conditions: protein HIPK2; average of three replicates. Put shortly: as §1

T4 sequence (P68400 whole entry, the tested form may be a part): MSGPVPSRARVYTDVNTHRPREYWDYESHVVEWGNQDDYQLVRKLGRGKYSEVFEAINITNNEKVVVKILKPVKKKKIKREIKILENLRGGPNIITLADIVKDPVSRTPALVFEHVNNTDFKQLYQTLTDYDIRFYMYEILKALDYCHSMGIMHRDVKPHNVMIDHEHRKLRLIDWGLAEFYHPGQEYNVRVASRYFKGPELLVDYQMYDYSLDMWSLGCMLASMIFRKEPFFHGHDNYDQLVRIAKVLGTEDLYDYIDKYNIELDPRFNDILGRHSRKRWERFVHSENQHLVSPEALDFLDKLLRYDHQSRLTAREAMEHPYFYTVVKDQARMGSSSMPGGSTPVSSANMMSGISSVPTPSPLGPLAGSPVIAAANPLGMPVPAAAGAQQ

For the compound `O=C(Nc1cccc(-c2c[nH]c3ncnc(N4CCOCC4)c23)c1)C1(C(=O)Nc2ccc(F)c(F)c2)CC1` [Compound 17], the dTm in assay [1] is 0.19 K; in assay [2] it was 2.62 K; in assay [3], 5.81 K; in assay [4] it was -0.81 K; in assay [5] it was -1.27 K; in assay [6], 3.32 K. For the same compound, the dTm in assay [7] is recorded as 7.02 K; in assay [8] it was 9.54 K.

Take `O=C(Nc1cccc(-c2c[nH]c3ncnc(N4CCOCC4)c23)c1)C1(C(=O)Nc2ccc(F)c(Cl)c2)CC1` [Compound 18]: the dTm in assay [1] is reported as 0.56 K; in assay [2] it was 4.02 K; in assay [3] it was 7.07 K; in assay [4] it was -0.75 K; in assay [5], 0.26 K; in assay [6], 3.67 K. For the same compound, the results for the dTm in assay [7] and in assay [8] were 8.41 K and 10.76 K, respectively.

`O=C(Nc1cccc(-c2c[nH]c3ncnc(N4CCOCC4)c23)c1)C1(C(=O)Nc2ccc(F)c(Br)c2)CC1` [Compound 19]: the dTm in assay [1] was found to be 1.26 K; in assay [2], 4.16 K; in assay [3] it was 7.11 K; in assay [4], 0.10 K; in assay [5] it was 2.85 K; in assay [6], 5.22 K. Besides, the dTm came out at 8.05 K in assay [7] and 2.50 K in assay [8].

As for `Cc1cc(NC(=O)C2(C(=O)Nc3cccc(-c4c[nH]c5ncnc(N6CCOCC6)c45)c3)CC2)ccc1F` [Compound 20], the dTm is listed as 0.17 K in assay [1]; 4.17 K in assay [2]; 8.85 K in assay [3]; -0.56 K in assay [4]; -0.92 K in assay [5]; 4.77 K in assay [6]. Also, the dTm is 8.94 K in assay [7] and 11.54 K in assay [8].

Take `COc1cc(NC(=O)C2(C(=O)Nc3cccc(-c4c[nH]c5ncnc(N6CCOCC6)c45)c3)CC2)ccc1F` [Compound 21]: the dTm was 0.09 K in assay [1]; 2.99 K in assay [2]; 6.63 K in assay [3]; 1.43 K in assay [4]; -1.98 K in assay [5]; 2.37 K in assay [6]. Besides, the values for the dTm in assay [7] and in assay [8] were 6.44 K and 9.11 K, respectively.

As for `CC(C)(C)c1cccc(NC(=O)C2(C(=O)Nc3cccc(-c4c[nH]c5ncnc(N6CCOCC6)c45)c3)CC2)c1` [Compound 22], the dTm in assay [1] is given as 1.08 K; in assay [2] it was 3.68 K; in assay [3] it was 4.89 K; in assay [4], -1.17 K; in assay [5] it was 2.40 K; in assay [6], 2.56 K. The values for the dTm in assay [7] and in assay [8] were 5.75 K and 3.44 K, respectively.

With `O=C(Nc1cccc(-c2c[nH]c3ncnc(N4CCOCC4)c23)c1)C1(C(=O)Nc2ccc(F)cc2F)CC1` [Compound 23], the dTm in assay [1] was 0.06 K; in assay [2], 2.08 K; in assay [3], 4.65 K; in assay [4], -0.33 K; in assay [5] it was -2.29 K; in assay [6], 2.39 K. In addition, the dTm was 4.42 K in assay [7] and 6.30 K in assay [8].

Turning to `Cc1cc(F)ccc1NC(=O)C1(C(=O)Nc2cccc(-c3c[nH]c4ncnc(N5CCOCC5)c34)c2)CC1` [Compound 24], the dTm in assay [1] is reported as -0.0179 K; in assay [2] it was 2.08 K; in assay [3], 4.53 K; in assay [4], 0.65 K; in assay [5] it was -2.57 K; in assay [6], 1.15 K. The dTm in assay [7] was 3.45 K; in assay [8], 4.12 K.

Take `O=C(Nc1cccc(-c2c[nH]c3ncnc(N4CCOCC4)c23)c1)C1(C(=O)Nc2cc(Br)c(F)cc2F)CC1` [Compound 25]: the dTm in assay [1] is 1.03 K; in assay [2], 3.32 K; in assay [3] it was 3.00 K; in assay [4], -3.68 K; in assay [5], 2.86 K; in assay [6] it was 2.91 K. The dTm in assay [7] was determined as 1.44 K; in assay [8] it was 1.71 K.

As for `O=C(Nc1cccc(-c2c[nH]c3ncnc(N4CCOCC4)c23)c1)C1(C(=O)Nc2ccc(F)c(Br)c2F)CC1` [Compound 26], the dTm is given as 1.04 K in assay [1]; 3.74 K in assay [2]; 3.94 K in assay [3]; -1.70 K in assay [4]; 1.95 K in assay [5]; 3.03 K in assay [6]. Besides, the dTm is listed as 2.31 K in assay [7] and 2.07 K in assay [8].

As to `O=C(Nc1cc(F)cc(Br)c1)C1(C(=O)Nc2cccc(-c3c[nH]c4ncnc(N5CCOCC5)c34)c2)CC1` [Compound 27], the dTm in assay [1] is on record as 1.15 K; in assay [2] it was 2.02 K; in assay [3], 3.05 K; in assay [4], -1.92 K; in assay [5], 2.33 K; in assay [6], 3.40 K. Moreover, the dTm in assay [7] is given as 3.29 K; in assay [8], 1.50 K.

For `CC(C)(C)c1cc(NC(=O)Nc2cccc(-c3c[nH]c4ncnc(N5CCOCC5)c34)c2)n(-c2ccc3ncccc3c2)n1` [Compound 28], the dTm in assay [1] is listed as 0.70 K; in assay [2], 10.62 K; in assay [3], 5.67 K; in assay [4], 0.00 K; in assay [5], 1.92 K; in assay [6] it was 3.36 K. Also, the dTm in assay [7] turned out to be 13.85 K; in assay [8], 9.47 K.
